Assay results: US20050256152A1, “Salt of a sulfonic acid containing clopidogrel and use thereof for the production of pharmaceutical formulations” (priority 2003, published 2005)
Where a name gives a salt, the structure may show the parent alone. Read-outs that look alike come from different tables or passages of the source.

Key:
[1] = 2 ml water, 5 hours
Experimental: (§1) 4.1 The stress stability of various salts of the clopidogrel was tested under different conditions. […] The following tests were conducted:
(§2) 50 mg of the salt concerned are weighed into a volumetric flask (100 ml) and 2 ml of water added. Then the flask is kept either at room temperature for 5 hours or at 80° C. for 5 hours. After the end of each experiment and, optionally, cooling to room temperature, the mobile phase is added up to 100 ml.
(§3) The result is determined by means of HPLC.
(§4) In all cases, the HPLC measurements were carried out under the following conditions with UV detection: […]

[2] = Experimental: as §1
50 mg of the salt concerned are weighed into a volumetric flask (100 ml) and held at 80° C. for 20 hours. After the end of each experiment and cooling to room temperature, the mobile phase is added up to 100 ml.
as §3, §4

[3] = for stress stability result by HPLC, alkaline: 2 ml 1N NaOH, 5 hours
Experimental: as §1
Then the flask is held either at room temperature for 5 hours or at 80° C. for 5 hours.
as §3, §4

[4] = 2 ml 1N HCl, 5 hours
Experimental: as §1
Then the flask is kept either at room temperature for 5 hours or at 80° C. for 5 hours.
as §3, §4

[5] = 5 hours
Experimental: as §1
as §2, with “3% H2O2” for “water”
as §3, §4

[6] = tables 1 to 4
[7] = 40 and 60° C., 75% relative humidity, 15 days, FIG. 4
[8] = 75% relative humidity

COC(=O)[C@H](c1ccccc1Cl)N1CCc2sccc2C1.O=S(=O)(O)c1ccccc1 [Clopidogrel Benzene Sulfonate (Amorphous)]
stress stability result by HPLC, neutral ([1]; 80° C.): 3.01%
stress stability result by HPLC, neutral ([1]; room temperature): 0.85%
stress stability result by HPLC, heat ([2]; solid salt, 80° C., 20 hours): 11.52%
stress stability result by HPLC, alkaline ([3]; 80° C.): 25.04%
stress stability result by HPLC, alkaline ([3]; room temperature): 0.64%
stability under alkaline conditions in comparison with the hydrogen sulfate and hydrochloride salts ([3]; alkaline conditions): considerably increased stability
stress stability result by HPLC, acidic ([4]; 80° C.): 2.36%
stress stability result by HPLC, acidic ([4]; room temperature): 0.64%
stress stability result by HPLC, oxidising ([5]; 2 ml 3% H2O2, 80° C.): 2.94%
stress stability result by HPLC, oxidising ([5]; 2 ml 3% H2O2, room temperature): 0.83%

COC(=O)[C@H](c1ccccc1Cl)N1CCc2sccc2C1.O=S(=O)(O)c1ccccc1 [Clopidogrel Benzene Sulfonate (Crystalline)]
stability in comparison with other salts (stress tests) [6]: even more stable than clopidogrel hydrogen sulfate
stress stability result by HPLC, neutral ([1]; 80° C.): 4.18%
stress stability result by HPLC, neutral ([1]; room temperature): 0.19%
stress stability result by HPLC, heat ([2]; solid salt, 80° C., 20 hours): 4.52%
stress stability result by HPLC, alkaline ([3]; 80° C.): 28.05%
stress stability result by HPLC, alkaline ([3]; room temperature): 0.14%
stress stability result by HPLC, acidic ([4]; 80° C.): 2.76%
stress stability result by HPLC, acidic ([4]; room temperature): 0.14%
stress stability result by HPLC, oxidising ([5]; 2 ml 3% H2O2, 80° C.): 3.98%
stress stability result by HPLC, oxidising ([5]; 2 ml 3% H2O2, room temperature): 0.13%
stability (decrease of content), compared with hydrogen sulfate and hydrochloride [7]: best stability values

COC(=O)[C@H](c1ccccc1Cl)N1CCc2sccc2C1 [Clopidogrel Hydrochloride, clopidogrel hydrochloride, reference compound]
stress stability result by HPLC, heat ([2]; 20 h): 32.43%
content after 15 days (initial value normalised to 100%) ([8]; 40° C.): 93.66%
content after 15 days (initial value normalised to 100%) ([8]; 60° C.): 42.54%

COC(=O)[C@H](c1ccccc1Cl)N1CCc2sccc2C1 [Clopidogrel Hydrogen Sulfate, clopidogrel hydrogen sulfate, reference compound]
stress stability result by HPLC, heat ([2]; 20 h): 0.31%

Clopidogrel besylate
content after 15 days (initial value normalised to 100%) ([8]; 40° C.): 103.32%
content after 15 days (initial value normalised to 100%) ([8]; 60° C.): 66.48%

Clopidogrel mesylate
content after 15 days (initial value normalised to 100%) ([8]; 40° C.): 97.56%
content after 15 days (initial value normalised to 100%) ([8]; 60° C.): 17.11%
